# Tested on: Energy system protein genes
# Assay: DNA chip mRNA expression in yeast, energy system protein genes (Table 4)
# Format: cell-based, Saccharomyces cerevisiae S288C
# Method in brief: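 Whole-genome yeast DNA chip hybridization (65° C., >12 h) of Cy-labeled cDNA from S288C cells exposed 2 h at 25° C. to a sub-lethal toxicant dose in YPD; value is intensity relative to chemical-free control.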
substance,measurement,setting,value
Na2As [(1)],The level of expressed mRNA in the presence of chemical substance/The level of expressed mRNA in the absence of chemical substance,yeast gene YAL060W,1.1
same,The level of expressed mRNA in the presence of chemical substance/The level of expressed mRNA in the absence of chemical substance,"yeast gene YBL058W, cells incubated two hours with the chemical substance",0.9
same,The level of expressed mRNA in the presence of chemical substance/The level of expressed mRNA in the absence of chemical substance,"yeast gene YBL099W, cells incubated two hours with the chemical substance",0.8
same,The level of expressed mRNA in the presence of chemical substance/The level of expressed mRNA in the absence of chemical substance,"yeast gene YBR001C, cells incubated two hours with the chemical substance",0.9
same,The level of expressed mRNA in the presence of chemical substance/The level of expressed mRNA in the absence of chemical substance,"yeast gene YBR185C, cells incubated two hours with the chemical substance",1.5
same,The level of expressed mRNA in the presence of chemical substance/The level of expressed mRNA in the absence of chemical substance,"yeast gene YBR221C, cells incubated two hours with the chemical substance",0.8
same,The level of expressed mRNA in the presence of chemical substance/The level of expressed mRNA in the absence of chemical substance,yeast gene YCL040W,0.9
same,The level of expressed mRNA in the presence of chemical substance/The level of expressed mRNA in the absence of chemical substance,yeast gene YCR012W,1.2
same,The level of expressed mRNA in the presence of chemical substance/The level of expressed mRNA in the absence of chemical substance,"yeast gene YCR046C, cells incubated two hours with the chemical substance",1.0
same,The level of expressed mRNA in the presence of chemical substance/The level of expressed mRNA in the absence of chemical substance,"yeast gene YCR105W, cells incubated two hours with the chemical substance",2.2
same,The level of expressed mRNA in the presence of chemical substance/The level of expressed mRNA in the absence of chemical substance,yeast gene YDL021W,5.1
same,The level of expressed mRNA in the presence of chemical substance/The level of expressed mRNA in the absence of chemical substance,"yeast gene YDL067C, cells incubated two hours with the chemical substance",1.8
same,The level of expressed mRNA in the presence of chemical substance/The level of expressed mRNA in the absence of chemical substance,"yeast gene YDL078C, cells incubated two hours with the chemical substance",0.7
same,The level of expressed mRNA in the presence of chemical substance/The level of expressed mRNA in the absence of chemical substance,"yeast gene YDL107W, cells incubated two hours with the chemical substance",1.3
same,The level of expressed mRNA in the presence of chemical substance/The level of expressed mRNA in the absence of chemical substance,yeast gene YDL174C,0.9
same,The level of expressed mRNA in the presence of chemical substance/The level of expressed mRNA in the absence of chemical substance,"yeast gene YDL181W, cells incubated two hours with the chemical substance",1.4
same,The level of expressed mRNA in the presence of chemical substance/The level of expressed mRNA in the absence of chemical substance,yeast gene YDR001C,1.0
same,The level of expressed mRNA in the presence of chemical substance/The level of expressed mRNA in the absence of chemical substance,"yeast gene YDR050C, cells incubated two hours with the chemical substance",1.9
same,The level of expressed mRNA in the presence of chemical substance/The level of expressed mRNA in the absence of chemical substance,"yeast gene YDR079W, cells incubated two hours with the chemical substance",1.3
same,The level of expressed mRNA in the presence of chemical substance/The level of expressed mRNA in the absence of chemical substance,"yeast gene YDR178W, cells incubated two hours with the chemical substance",2.0
same,The level of expressed mRNA in the presence of chemical substance/The level of expressed mRNA in the absence of chemical substance,yeast gene YDR231C,1.1
same,The level of expressed mRNA in the presence of chemical substance/The level of expressed mRNA in the absence of chemical substance,"yeast gene YDR298C, cells incubated two hours with the chemical substance",1.3
same,The level of expressed mRNA in the presence of chemical substance/The level of expressed mRNA in the absence of chemical substance,"yeast gene YDR377W, cells incubated two hours with the chemical substance",1.3
same,The level of expressed mRNA in the presence of chemical substance/The level of expressed mRNA in the absence of chemical substance,"yeast gene YDR529C, cells incubated two hours with the chemical substance",1.8
same,The level of expressed mRNA in the presence of chemical substance/The level of expressed mRNA in the absence of chemical substance,"yeast gene YEL024W, cells incubated two hours with the chemical substance",1.5
same,The level of expressed mRNA in the presence of chemical substance/The level of expressed mRNA in the absence of chemical substance,"yeast gene YEL039C, cells incubated two hours with the chemical substance",1.1
same,The level of expressed mRNA in the presence of chemical substance/The level of expressed mRNA in the absence of chemical substance,yeast gene YER178W,0.8
same,The level of expressed mRNA in the presence of chemical substance/The level of expressed mRNA in the absence of chemical substance,yeast gene YFL057C,20.9
same,The level of expressed mRNA in the presence of chemical substance/The level of expressed mRNA in the absence of chemical substance,yeast gene YFR053C,1.8
same,The level of expressed mRNA in the presence of chemical substance/The level of expressed mRNA in the absence of chemical substance,"yeast gene YGL018C, cells incubated two hours with the chemical substance",1.5
same,The level of expressed mRNA in the presence of chemical substance/The level of expressed mRNA in the absence of chemical substance,yeast gene YGL062W,0.6
same,The level of expressed mRNA in the presence of chemical substance/The level of expressed mRNA in the absence of chemical substance,"yeast gene YGL187C, cells incubated two hours with the chemical substance",1.5
same,The level of expressed mRNA in the presence of chemical substance/The level of expressed mRNA in the absence of chemical substance,"yeast gene YGL191W, cells incubated two hours with the chemical substance",2.3
same,The level of expressed mRNA in the presence of chemical substance/The level of expressed mRNA in the absence of chemical substance,"yeast gene YGL205W, cells incubated two hours with the chemical substance",1.0
same,The level of expressed mRNA in the presence of chemical substance/The level of expressed mRNA in the absence of chemical substance,"yeast gene YGL256W, cells incubated two hours with the chemical substance",0.9
same,The level of expressed mRNA in the presence of chemical substance/The level of expressed mRNA in the absence of chemical substance,yeast gene YGR043C,2.6
same,The level of expressed mRNA in the presence of chemical substance/The level of expressed mRNA in the absence of chemical substance,"yeast gene YGR062C, cells incubated two hours with the chemical substance, 25° C., YPD medium",0.9
same,The level of expressed mRNA in the presence of chemical substance/The level of expressed mRNA in the absence of chemical substance,"yeast gene YGR087C, cells incubated two hours with the chemical substance",1.0
same,The level of expressed mRNA in the presence of chemical substance/The level of expressed mRNA in the absence of chemical substance,"yeast gene YGR174C, cells incubated two hours with the chemical substance",1.1
same,The level of expressed mRNA in the presence of chemical substance/The level of expressed mRNA in the absence of chemical substance,yeast gene YGR192C,1.4
same,The level of expressed mRNA in the presence of chemical substance/The level of expressed mRNA in the absence of chemical substance,yeast gene YGR244C,1.0
same,The level of expressed mRNA in the presence of chemical substance/The level of expressed mRNA in the absence of chemical substance,yeast gene YGR254W,1.2
same,The level of expressed mRNA in the presence of chemical substance/The level of expressed mRNA in the absence of chemical substance,yeast gene YHR179W,3.3
same,The level of expressed mRNA in the presence of chemical substance/The level of expressed mRNA in the absence of chemical substance,yeast gene YIL160C,0.8
same,The level of expressed mRNA in the presence of chemical substance/The level of expressed mRNA in the absence of chemical substance,"yeast gene YIR031C, cells incubated two hours with the chemical substance",0.9
same,The level of expressed mRNA in the presence of chemical substance/The level of expressed mRNA in the absence of chemical substance,yeast gene YJL052W,1.6
same,The level of expressed mRNA in the presence of chemical substance/The level of expressed mRNA in the absence of chemical substance,"yeast gene YJL121C, cells incubated two hours with the chemical substance",1.0
same,The level of expressed mRNA in the presence of chemical substance/The level of expressed mRNA in the absence of chemical substance,"yeast gene YJL166W, cells incubated two hours with the chemical substance",2.1
same,The level of expressed mRNA in the presence of chemical substance/The level of expressed mRNA in the absence of chemical substance,"yeast gene YJL216C, cells incubated two hours with the chemical substance",1.1
same,The level of expressed mRNA in the presence of chemical substance/The level of expressed mRNA in the absence of chemical substance,yeast gene YJR009C,1.1
